Literature values in patent publication US20220160890A1, “SURVIVAL-TARGETING CHIMERIC (SURTAC) MOLECULES” (Locki Therapeutics Limited, priority 2019, published 2022).

Assays:
p53 [1] = target: T1, p53 (Homo sapiens, UniProt P04637)
T1 construct: various tumor cells lines expressing wild-type p53

[2] = system: tumor cells lines expressing wild-type p53; conditions: tumor cell lines expressing wild-type p53
p53 [3] = target: T1, p53; remark: listed apart in the source
p53-HDM-2 interaction = p53-HDM-2 interaction (Homo sapiens, UniProt P04637); conditions: in vitro and in vivo
p53-HDM-2 interaction, sequence (P04637 whole entry): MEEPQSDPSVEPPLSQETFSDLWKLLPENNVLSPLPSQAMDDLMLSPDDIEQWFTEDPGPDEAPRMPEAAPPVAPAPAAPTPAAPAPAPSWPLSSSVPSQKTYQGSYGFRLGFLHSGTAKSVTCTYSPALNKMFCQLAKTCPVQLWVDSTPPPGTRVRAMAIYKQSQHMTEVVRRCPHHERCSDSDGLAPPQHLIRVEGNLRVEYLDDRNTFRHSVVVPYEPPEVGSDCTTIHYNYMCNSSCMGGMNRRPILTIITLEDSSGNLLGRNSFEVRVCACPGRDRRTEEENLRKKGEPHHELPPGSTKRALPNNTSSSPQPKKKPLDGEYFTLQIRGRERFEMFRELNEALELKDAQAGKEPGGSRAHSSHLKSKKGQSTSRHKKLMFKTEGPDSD

T1 sequence (P04637 whole entry): as above

binding to p53 (p53 [1]): binds to p53
accumulation of p53 in tumor cells (p53 [3]): induces its accumulation in tumor cells
p53-HDM-2 interaction (p53-HDM-2 interaction): prevents p53-HDM-2 interaction
Compound: OCc1ccc(-c2ccc(-c3ccc(CO)s3)o2)s1 [RITA, 2,5-bis(5-hydroxymethyl-2-thienyl)furan]
apoptosis [2]: massive apoptosis
expression of p53 target genes [2]: induced expression of p53 target genes
